Experimental data published in ChEMBL document CHEMBL1158141, “A sorbicillinoid urea from an intertidal Paecilomyces marquandii” (2006).

Legend:
Bacillus subtilis = test: Antibiotic activity against Bacillus subtilis ATCC 6633 by agar diffusion method; format: functional
Escherichia coli = test: Antibiotic activity against Escherichia coli ATCC 25922 by agar diffusion method; format: functional

SMILES: CC(C)C[C@@H]1NC(=O)[C@H](Cc2ccccc2)NC1=O
- inhibition zone (IZ) (Bacillus subtilis): 10 mm
- inhibition zone (IZ) (Escherichia coli): 8 mm

SMILES: CC(C)[C@@H]1NC(=O)[C@H](Cc2ccccc2)NC1=O
- inhibition zone (IZ) (Bacillus subtilis): 9 mm
- inhibition zone (IZ) (Escherichia coli): 8 mm
